Results reported in patent US20150337013A1, “NOVEL ANTIBACTERIAL AGENTS FOR THE TREATMENT OF GRAM POSITIVE INFECTIONS” (priority 2008, published 2015).
Like-named read-outs stand apart in the source and are kept apart here.

Experiments:
[1] = system: Enterococcus faecalis EFS.312, Daptomycin resistant mutant (EFA); assay type: cell-based; details: MHBc with 50 mg/L calcium, 18-20 hours at 37° C.
Experimental: (§1) Compounds according to Formula I were tested for antimicrobial activity against a panel of organisms. Aerobic organisms, Staphylococcus aureus, Enterococcus faecalis and E. faecium, were tested by broth microdilution according to Clinical and Laboratory Standards Institute (CLSI) document M7-A7 (Clinical and Laboratory Standards Institute. Methods for Dilution Antimicrobial Susceptibility Tests for Bacteria that Grow Aerobically; Approved Standard—Seventh Edition. CLSI document M7-A7 [ISBN 1-56238-587-9]. Clinical and Laboratory Standards Institute, 940 West Valley Road, Suite 1400, Wayne, Pa. 19087-1898 USA, 2006) with modifications as described below. Mueller Hinton Broth (MHBc) was supplemented with 50 mg/L calcium (equivalent to human physiological levels of calcium) and assay plates were incubated 18-20 hours at 37° C. with aeration (200 rpm).
(§2) In all cases the final concentration of dimethyl sulfoxide incubated with cells is less than or equal to 1%. For minimum inhibitory concentration (MIC) calculations, 2-fold dilutions of compounds were added to wells of a microtiter plate containing 5×10^5 bacteria in a final volume of 100 μL of media. Following incubation, (18-20 hours at 37° C. with aeration at 200 rpm) growth was confirmed visually by placing plates over a viewing apparatus (stand with a mirror underneath) and then the optical density (OD600) was measured using a SpectraMax 340PC^384 plate reader. Growth was defined as turbidity that could be detected with the naked eye or achieving minimum OD600of 0.1. MIC values (in μg/mL) were defined as the lowest concentration producing no visible turbidity.

[2] = system: Enterococcus faecium EFM.14 (ATCC 6569); assay type: cell-based
Experimental: as §1, §2

[3] = system: Enterococcus faecalis EFS.201 (ATCC 49452); assay type: cell-based
Experimental: as §1, §2

[4] = system: Staphylococcus aureus SAU.399 (ATCC 43300), Methicillin and Oxacillin Resistant; assay type: cell-based
Experimental: as §1, §2

[5] = system: Staphylococcus aureus SAU.42 (ATCC 29213); assay type: cell-based
Experimental: as §1, §2

[6] = system: Staphylococcus aureus SAU.278, Daptomycin resistant mutant (D10); assay type: cell-based; details: MHBc with 50 mg/L calcium, 18-20 hours at 37° C.
Experimental: as §1, §2

[7] = system: Enterococcus faecium EFM.384, Daptomycin resistant mutant (14-A); assay type: cell-based; details: MHBc with 50 mg/L calcium, 18-20 hours at 37° C.
Experimental: as §1, §2

[8] = MHBc with 50 mg/L calcium, 18-20 hours at 37° C.

SMILES | Efs312 MIC [1] | Efm14 MIC ([2]; ATCC 6569) | Efs201 MIC ([3]; ATCC 49452) | Sa399 MIC ([4]; ATCC 43300) | Sa42 MIC ([5]; ATCC 29213) | Sa278 MIC [6] | Efm384 MIC [7] | C. diff MIC90 (Clostridium difficile) | Efm14 MIC [2, 8] | Efs201 MIC [3, 8] | Sa399 MIC [4, 8] | Sa42 MIC [5, 8]
CCCC1CCC(c2ccc(C(=O)N[C@@H](Cc3c[nH]c4ccccc34)C(=O)N[C@H](CC(N)=O)C(=O)N[C@@H](CC(=O)O)C(=O)N[C@@H]3C(=O)NCC(=O)N[C@@H](CCCN)C(=O)N[C@@H](CC(=O)O)C(=O)N[C@H](C)C(=O)N[C@@H](CC(=O)O)C(=O)NCC(=O)N[C@H](CO)C(=O)N[C@@H]([C@H](C)CC(=O)O)C(=O)N[C@@H](CC(=O)c4ccccc4N)C(=O)O[C@@H]3C)cc2)CC1 (single isomer, unassigned) [53 isomer II] | 4 µg/mL | 1 µg/mL | 1 µg/mL | 1 µg/mL | 0.5 µg/mL | 2 µg/mL | 4 µg/mL | 1 µg/mL | – | – | – | –
CCCCCCOc1ccc(/C=C/C(=O)N[C@@H](Cc2c[nH]c3ccccc23)C(=O)N[C@H](CC(N)=O)C(=O)N[C@@H](CC(=O)O)C(=O)N[C@@H]2C(=O)NCC(=O)N[C@@H](CCCN)C(=O)N[C@@H](CC(=O)O)C(=O)N[C@H](C)C(=O)N[C@@H](CC(=O)O)C(=O)NCC(=O)N[C@H](CO)C(=O)N[C@@H]([C@H](C)CC(=O)O)C(=O)N[C@@H](CC(=O)c3ccccc3N)C(=O)O[C@@H]2C)cc1 [Compound 42] | – | – | – | – | – | 4 µg/mL | 8 µg/mL | 0.5 µg/mL | 2 µg/mL | 1 µg/mL | 1 µg/mL | 0.5 µg/mL
CC(C)CCCCCCC(=O)N[C@@H](Cc1c[nH]c2ccccc12)C(=O)N[C@H](CC(N)=O)C(=O)N[C@@H](CC(=O)O)C(=O)N[C@@H]1C(=O)NCC(=O)N[C@@H](CCCN)C(=O)N[C@@H](CC(=O)O)C(=O)N[C@H](C)C(=O)N[C@@H](CC(=O)O)C(=O)NCC(=O)N[C@H](CO)C(=O)N[C@@H]([C@H](C)CC(=O)O)C(=O)N[C@@H](CC(=O)c2ccccc2N)C(=O)O[C@@H]1C [Compound 9] | >32 µg/mL | 4 µg/mL | 4 µg/mL | 0.5 µg/mL | 0.5 µg/mL | 8 µg/mL | 32 µg/mL | – | – | – | – | –
CCCSc1ccc(-c2csc(C(=O)N[C@@H](Cc3c[nH]c4ccccc34)C(=O)N[C@H](CC(N)=O)C(=O)N[C@@H](CC(=O)O)C(=O)N[C@@H]3C(=O)NCC(=O)N[C@@H](CCCN)C(=O)N[C@@H](CC(=O)O)C(=O)N[C@H](C)C(=O)N[C@@H](CC(=O)O)C(=O)NCC(=O)N[C@H](CO)C(=O)N[C@@H]([C@H](C)CC(=O)O)C(=O)N[C@@H](CC(=O)c4ccccc4N)C(=O)O[C@@H]3C)c2)cc1 [Compound 56] | >32 µg/mL | 8 µg/mL | 8 µg/mL | 2 µg/mL | 2 µg/mL | 8 µg/mL | 32 µg/mL | – | – | – | – | –
CCCCOc1ccc(-c2ccc(C(=O)N[C@@H](Cc3c[nH]c4ccccc34)C(=O)N[C@H](CC(N)=O)C(=O)N[C@@H](CC(=O)O)C(=O)N[C@@H]3C(=O)NCC(=O)N[C@@H](CCCN)C(=O)N[C@@H](CC(=O)O)C(=O)N[C@H](C)C(=O)N[C@@H](CC(=O)O)C(=O)NCC(=O)N[C@H](CO)C(=O)N[C@@H]([C@H](C)CC(=O)O)C(=O)N[C@@H](CC(=O)c4ccccc4N)C(=O)O[C@@H]3C)cc2)cc1 [Compound 60] | >32 µg/mL | 4 µg/mL | 4 µg/mL | 4 µg/mL | 1 µg/mL | 8 µg/mL | 16 µg/mL | – | – | – | – | –
CC(C)Sc1ccc(-c2csc(C(=O)N[C@@H](Cc3c[nH]c4ccccc34)C(=O)N[C@H](CC(N)=O)C(=O)N[C@@H](CC(=O)O)C(=O)N[C@@H]3C(=O)NCC(=O)N[C@@H](CCCN)C(=O)N[C@@H](CC(=O)O)C(=O)N[C@H](C)C(=O)N[C@@H](CC(=O)O)C(=O)NCC(=O)N[C@H](CO)C(=O)N[C@@H]([C@H](C)CC(=O)O)C(=O)N[C@@H](CC(=O)c4ccccc4N)C(=O)O[C@@H]3C)c2)cc1 [Compound 55] | >32 µg/mL | 2 µg/mL | 2 µg/mL | 0.25 µg/mL | 0.5 µg/mL | 4 µg/mL | 8 µg/mL | – | – | – | – | –
CCCCCCCCCC(C)(C)C(=O)N[C@@H](Cc1c[nH]c2ccccc12)C(=O)N[C@H](CC(N)=O)C(=O)N[C@@H](CC(=O)O)C(=O)N[C@@H]1C(=O)NCC(=O)N[C@@H](CCCN)C(=O)N[C@@H](CC(=O)O)C(=O)N[C@H](C)C(=O)N[C@@H](CC(=O)O)C(=O)NCC(=O)N[C@H](CO)C(=O)N[C@@H]([C@H](C)CC(=O)O)C(=O)N[C@@H](CC(=O)c2ccccc2N)C(=O)O[C@@H]1C [Compound 12] | 32 µg/mL | 8 µg/mL | 16 µg/mL | 2 µg/mL | 4 µg/mL | 8 µg/mL | >32 µg/mL | – | – | – | – | –
CCCCCc1ccc(C(=O)N[C@@H](Cc2c[nH]c3ccccc23)C(=O)N[C@H](CC(N)=O)C(=O)N[C@@H](CC(=O)O)C(=O)N[C@@H]2C(=O)NCC(=O)N[C@@H](CCCN)C(=O)N[C@@H](CC(=O)O)C(=O)N[C@H](C)C(=O)N[C@@H](CC(=O)O)C(=O)NCC(=O)N[C@H](CO)C(=O)N[C@@H]([C@H](C)CC(=O)O)C(=O)N[C@@H](CC(=O)c3ccccc3N)C(=O)O[C@@H]2C)cc1 [Compound 31] | >32 µg/mL | 16 µg/mL | 16 µg/mL | 4 µg/mL | 4 µg/mL | >32 µg/mL | >32 µg/mL | – | – | – | – | –
CCCCCCCC(C)C(=O)N[C@@H](Cc1c[nH]c2ccccc12)C(=O)N[C@H](CC(N)=O)C(=O)N[C@@H](CC(=O)O)C(=O)N[C@@H]1C(=O)NCC(=O)N[C@@H](CCCN)C(=O)N[C@@H](CC(=O)O)C(=O)N[C@H](C)C(=O)N[C@@H](CC(=O)O)C(=O)NCC(=O)N[C@H](CO)C(=O)N[C@@H]([C@H](C)CC(=O)O)C(=O)N[C@@H](CC(=O)c2ccccc2N)C(=O)O[C@@H]1C (stereo partly shown) [Compound 13] | >32 µg/mL | 16 µg/mL | 16 µg/mL | 1 µg/mL | 2 µg/mL | 32 µg/mL | >32 µg/mL | – | – | – | – | –
CCCCCCCCCCCC(=O)N[C@@H](Cc1c[nH]c2ccccc12)C(=O)N[C@H](CC(N)=O)C(=O)N[C@@H](CC(=O)O)C(=O)N[C@@H]1C(=O)NCC(=O)N[C@@H](CCCN)C(=O)N[C@@H](CC(=O)O)C(=O)N[C@H](C)C(=O)N[C@@H](CC(=O)O)C(=O)NCC(=O)N[C@H](CO)C(=O)N[C@@H]([C@H](C)CC(=O)O)C(=O)N[C@@H](CC(=O)c2ccccc2N)C(=O)O[C@@H]1C [Compound 3] | 32 µg/mL | 1 µg/mL | 0.5 µg/mL | 1 µg/mL | 0.5 µg/mL | 1 µg/mL | 4 µg/mL | – | – | – | – | –
CCCCCCC1CCC(c2ccc(C(=O)N[C@@H](Cc3c[nH]c4ccccc34)C(=O)N[C@H](CC(N)=O)C(=O)N[C@@H](CC(=O)O)C(=O)N[C@@H]3C(=O)NCC(=O)N[C@@H](CCCN)C(=O)N[C@@H](CC(=O)O)C(=O)N[C@H](C)C(=O)N[C@@H](CC(=O)O)C(=O)NCC(=O)N[C@H](CO)C(=O)N[C@@H]([C@H](C)CC(=O)O)C(=O)N[C@@H](CC(=O)c4ccccc4N)C(=O)O[C@@H]3C)cc2)CC1 (single isomer, unassigned) [54 isomer II] | – | 1 µg/mL | 2 µg/mL | 1 µg/mL | 1 µg/mL | – | – | 4 µg/mL | – | – | – | –
